Results as given in paper PMC3949122 (Current biology : CB, 2014).
Where two headings read alike, the source gives them in different places. Where no end group is shown, it is not given here.

How the values were obtained:
[1] = test system: TRPA1; conditions: cited from earlier work; for activation of TRPA1 via covalent modification: ref [40]-[44]; for activation of TRPA1 by allosteric modulators: interact with transmembrane domains, not the intracellular C-terminus, ref [41], [45], [46]
[2] = target: TRPA1 (Homo sapiens, UniProt O75762); type: cell-based; conditions: alanine scanning of t-ProTx-I; label = residue mutated to Ala
[3] = test system: NaV1.2; type: cell-based; conditions: membrane-tethered, co-expressed; voltage-induced currents

Sequence of TRPA1 (Homo sapiens, UniProt O75762) (O75762 whole entry): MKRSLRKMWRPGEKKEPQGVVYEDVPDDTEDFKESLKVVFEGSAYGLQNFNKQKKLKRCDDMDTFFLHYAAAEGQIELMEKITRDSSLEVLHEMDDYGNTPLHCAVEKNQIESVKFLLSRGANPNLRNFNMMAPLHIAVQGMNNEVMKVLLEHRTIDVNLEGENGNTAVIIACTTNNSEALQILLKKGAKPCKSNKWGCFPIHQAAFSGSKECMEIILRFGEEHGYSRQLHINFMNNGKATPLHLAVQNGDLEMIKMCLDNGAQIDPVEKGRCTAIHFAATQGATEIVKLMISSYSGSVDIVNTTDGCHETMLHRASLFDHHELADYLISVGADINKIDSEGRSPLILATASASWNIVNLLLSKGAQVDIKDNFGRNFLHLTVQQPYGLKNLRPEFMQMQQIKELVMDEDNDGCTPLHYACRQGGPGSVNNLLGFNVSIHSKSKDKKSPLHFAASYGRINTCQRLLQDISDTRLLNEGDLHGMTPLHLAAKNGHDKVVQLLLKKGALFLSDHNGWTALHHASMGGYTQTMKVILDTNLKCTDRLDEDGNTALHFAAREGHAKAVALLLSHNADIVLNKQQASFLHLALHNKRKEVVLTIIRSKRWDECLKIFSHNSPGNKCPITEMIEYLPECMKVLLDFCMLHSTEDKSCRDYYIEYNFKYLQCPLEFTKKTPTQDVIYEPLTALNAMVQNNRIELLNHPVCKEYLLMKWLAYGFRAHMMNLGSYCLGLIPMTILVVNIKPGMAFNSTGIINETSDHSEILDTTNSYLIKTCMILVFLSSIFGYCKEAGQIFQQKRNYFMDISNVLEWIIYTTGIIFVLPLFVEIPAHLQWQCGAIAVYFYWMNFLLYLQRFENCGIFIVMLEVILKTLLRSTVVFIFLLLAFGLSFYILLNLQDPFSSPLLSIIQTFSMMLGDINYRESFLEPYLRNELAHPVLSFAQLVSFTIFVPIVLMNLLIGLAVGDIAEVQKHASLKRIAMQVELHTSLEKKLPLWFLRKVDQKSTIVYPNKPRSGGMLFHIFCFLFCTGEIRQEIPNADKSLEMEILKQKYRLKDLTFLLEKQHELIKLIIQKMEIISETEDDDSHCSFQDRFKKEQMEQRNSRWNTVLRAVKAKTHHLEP

Compound: CN(C)CCCN1c2ccccc2Sc2ccc(Cl)cc21 [chlorpromazine]
- activation of TRPA1 ([1]; ref [8]): activated

Compound: C=CCN=C=S [allyl isothiocyanate]
- activation of TRPA1 via covalent modification [1]: activates TRPA1
- activation of TRPA1 ([1]; ref [5], [6]): activated

Compound: OCl [hypochlorite]
- activation of TRPA1 via covalent modification [1]: activates TRPA1

Compound: OO [hydrogen peroxide]
- activation of TRPA1 via covalent modification [1]: activates TRPA1

Compound: CC1CCC(C(C)C)C(O)C1 (stereo not shown) [menthol]
- activation of TRPA1 by allosteric modulators [1]: allosteric modulators

Compound: CCCCCC(O)/C=C/C=O (stereo not shown) [4-hydroxy-nonenal]
- activation of TRPA1 via covalent modification [1]: activates TRPA1

Compound: t-ProTx-I (S22A) (ECRYWLGGCSAGQTCCKHLVCARRHGWCVWDGTFS; ends and bridges not checked; also: membrane tether; UniProt P83480 1-35, looked up, variant S22A)
- residue whose mutation to alanine reduces inhibition of TRPA1 (binding surface) [2]: in common between the two binding surfaces
- activity of t-ProTx-I alanine mutant against NaV1.2 / voltage-gated sodium channels [3]: strongly active

Compound: Cc1ccc(C(C)C)cc1O [carvacrol]
- activation of TRPA1 by allosteric modulators [1]: allosteric modulators

Compound: C=CCS[S+]([O-])CC=C (stereo not shown) [allicin]
- activation of TRPA1 ([1]; ref [5], [6]): activated

Compound: Clc1ccccc1C(c1ccccc1)(c1ccccc1)n1ccnc1 [clotrimazole]
- activation of TRPA1 ([1]; ref [7]): activated

Compound: Oc1c(I)cc(Cl)c2cccnc12 [clioquinol]
- activation of TRPA1 ([1]; ref [9]): activated
